The text below walks through data of patent US7166303B2, “Anesthetic formulations” (Maelor Pharmaceuticals Limited, priority 2000, dated 2007).

≈ marks a conversion by molar mass, not a printed value.

One series can be described thus: physchem. The following applies: water, thermodynamic from solid.
The conditions of series [1]: 84% water/16% propylene glycol, ambient temperature.

Description for physchem: Analyses were performed using the Perkin Elmer Lambda 5 UV/Vis Spectrophotometer.
Two sets of standards were prepared by serial dilution of: • 1. 10% poloxamer P407/1% Propofol solution in water. • 2. 1% Propofol solution in ethanol (EtOH).
Dilutions were performed with water and EtOH respectively. The standards were further diluted one hundred fold prior to measurement of their UV absorption spectra recorded.

In the series “physchem”, `CC(C)c1cccc(C(C)C)c1O` [Propofol, 2,6-bis(1-methylethyl)phenol] gave a solubility (thermodynamic) of approximately 1000 µM (≈ 178 µg/mL). In addition, in series [1], the “increase of solubility of Propofol over water alone” value was “approximately 50%”.

The solubility (thermodynamic) is solubility found after equilibrating the solid with the medium.
